Assay results reported in ChEMBL document CHEMBL1153155, “Ring-fused pyrazole derivatives as potent inhibitors of lymphocyte-specific kinase (Lck): Structure, synthesis, and SAR” (Bioorg Med Chem Lett, 2010).

Legend:
Lymphocyte = assay: Immunosuppressive activity in C57BL/6 mouse lymphocytes cocultured with mitomycin C-stimulated BALB/c mouse splenocyte assessed as [3H]thymidine incorporation after 72 hrs by mixed lymphocyte reaction
[1] = target: Tyrosine-protein kinase Lck (Homo sapiens, UniProt P06239); assay: Inhibition of GST-tagged human LCK by scintillation counting
Chain of Tyrosine-protein kinase Lck (P06239 whole entry): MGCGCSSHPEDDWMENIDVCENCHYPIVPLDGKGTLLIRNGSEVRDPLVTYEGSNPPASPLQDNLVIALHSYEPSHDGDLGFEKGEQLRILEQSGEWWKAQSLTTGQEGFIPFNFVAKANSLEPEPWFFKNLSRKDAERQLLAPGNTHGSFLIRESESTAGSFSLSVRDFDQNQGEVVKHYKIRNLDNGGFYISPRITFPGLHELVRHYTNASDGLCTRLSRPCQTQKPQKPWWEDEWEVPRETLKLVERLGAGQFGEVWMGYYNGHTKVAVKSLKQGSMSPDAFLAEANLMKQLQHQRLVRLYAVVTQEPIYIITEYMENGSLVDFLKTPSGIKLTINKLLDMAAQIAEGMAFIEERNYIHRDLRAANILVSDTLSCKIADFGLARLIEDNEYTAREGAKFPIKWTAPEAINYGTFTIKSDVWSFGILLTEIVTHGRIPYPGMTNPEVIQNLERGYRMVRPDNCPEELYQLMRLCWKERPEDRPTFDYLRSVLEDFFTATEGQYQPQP

[2] = target: Proto-oncogene tyrosine-protein kinase Src (Homo sapiens, UniProt P12931); assay: Inhibition of SRC
Chain of Proto-oncogene tyrosine-protein kinase Src (P12931 2-536 limits assumed): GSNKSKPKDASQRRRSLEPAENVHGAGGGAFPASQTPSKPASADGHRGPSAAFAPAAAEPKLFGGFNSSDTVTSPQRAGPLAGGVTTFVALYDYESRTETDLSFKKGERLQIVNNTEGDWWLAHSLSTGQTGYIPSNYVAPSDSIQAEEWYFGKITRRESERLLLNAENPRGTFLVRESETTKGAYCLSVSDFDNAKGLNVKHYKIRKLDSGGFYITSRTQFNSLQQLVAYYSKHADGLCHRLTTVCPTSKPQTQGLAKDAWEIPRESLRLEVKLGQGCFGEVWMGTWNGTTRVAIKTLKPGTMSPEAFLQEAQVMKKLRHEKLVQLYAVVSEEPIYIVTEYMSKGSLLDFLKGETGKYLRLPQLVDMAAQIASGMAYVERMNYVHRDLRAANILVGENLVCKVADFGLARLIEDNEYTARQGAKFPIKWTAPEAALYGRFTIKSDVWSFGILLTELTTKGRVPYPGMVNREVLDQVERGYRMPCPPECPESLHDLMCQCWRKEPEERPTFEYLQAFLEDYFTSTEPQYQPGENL

[3] = target: Tyrosine-protein kinase CSK (Homo sapiens, UniProt P41240); assay: Inhibition of Csk
Chain of Tyrosine-protein kinase CSK (P41240 whole entry): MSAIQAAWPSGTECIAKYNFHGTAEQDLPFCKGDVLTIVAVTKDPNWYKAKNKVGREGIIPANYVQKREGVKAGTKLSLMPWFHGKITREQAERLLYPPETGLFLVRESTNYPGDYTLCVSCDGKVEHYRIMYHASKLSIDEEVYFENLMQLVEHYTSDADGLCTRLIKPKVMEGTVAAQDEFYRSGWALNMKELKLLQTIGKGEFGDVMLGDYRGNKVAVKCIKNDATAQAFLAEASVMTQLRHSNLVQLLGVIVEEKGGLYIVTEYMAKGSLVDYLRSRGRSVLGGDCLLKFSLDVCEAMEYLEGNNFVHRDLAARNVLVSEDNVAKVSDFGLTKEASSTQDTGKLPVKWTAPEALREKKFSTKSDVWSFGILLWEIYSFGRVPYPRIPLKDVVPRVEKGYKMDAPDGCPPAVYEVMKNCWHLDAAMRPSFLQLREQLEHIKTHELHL

[4] = target: T1, Tyrosine-protein kinase ZAP-70 (Homo sapiens, UniProt P43403); assay: Inhibition of Zap70
T1 sequence (P43403 whole entry): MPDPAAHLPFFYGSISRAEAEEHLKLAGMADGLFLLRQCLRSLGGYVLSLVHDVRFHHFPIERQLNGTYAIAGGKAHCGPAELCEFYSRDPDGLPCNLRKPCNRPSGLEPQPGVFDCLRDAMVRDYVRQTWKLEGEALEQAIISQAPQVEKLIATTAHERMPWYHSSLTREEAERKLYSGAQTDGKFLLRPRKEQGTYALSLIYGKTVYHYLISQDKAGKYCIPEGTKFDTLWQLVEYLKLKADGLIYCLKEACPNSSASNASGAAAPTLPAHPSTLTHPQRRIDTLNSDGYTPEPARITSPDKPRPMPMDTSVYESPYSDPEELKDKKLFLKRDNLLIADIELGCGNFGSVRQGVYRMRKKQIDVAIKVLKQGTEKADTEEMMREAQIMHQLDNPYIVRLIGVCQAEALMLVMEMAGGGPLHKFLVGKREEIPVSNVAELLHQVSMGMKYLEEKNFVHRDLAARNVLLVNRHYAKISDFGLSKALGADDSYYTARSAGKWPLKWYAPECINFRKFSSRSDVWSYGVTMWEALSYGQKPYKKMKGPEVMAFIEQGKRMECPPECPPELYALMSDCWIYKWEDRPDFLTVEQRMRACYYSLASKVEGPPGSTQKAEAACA

[5] = target: Dual specificity mitogen-activated protein kinase kinase 1 (Homo sapiens, UniProt Q02750); assay: Inhibition of MEK1
Chain of Dual specificity mitogen-activated protein kinase kinase 1 (Q02750 whole entry): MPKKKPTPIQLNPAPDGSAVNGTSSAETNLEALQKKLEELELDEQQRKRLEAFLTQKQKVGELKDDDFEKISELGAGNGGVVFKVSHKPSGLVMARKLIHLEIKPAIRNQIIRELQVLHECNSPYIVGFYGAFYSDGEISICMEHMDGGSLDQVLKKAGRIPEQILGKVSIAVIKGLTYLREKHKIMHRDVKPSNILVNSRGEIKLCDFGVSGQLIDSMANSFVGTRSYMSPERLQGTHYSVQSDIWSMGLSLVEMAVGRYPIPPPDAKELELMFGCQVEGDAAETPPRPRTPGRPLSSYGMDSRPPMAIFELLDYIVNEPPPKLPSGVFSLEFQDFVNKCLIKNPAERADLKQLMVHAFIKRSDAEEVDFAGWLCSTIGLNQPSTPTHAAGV

[6] = Inhibition of PKA
[7] = target: RAC-alpha serine/threonine-protein kinase (Homo sapiens, UniProt P31749); assay: Inhibition of PKBalpha
Chain of RAC-alpha serine/threonine-protein kinase (P31749 whole entry): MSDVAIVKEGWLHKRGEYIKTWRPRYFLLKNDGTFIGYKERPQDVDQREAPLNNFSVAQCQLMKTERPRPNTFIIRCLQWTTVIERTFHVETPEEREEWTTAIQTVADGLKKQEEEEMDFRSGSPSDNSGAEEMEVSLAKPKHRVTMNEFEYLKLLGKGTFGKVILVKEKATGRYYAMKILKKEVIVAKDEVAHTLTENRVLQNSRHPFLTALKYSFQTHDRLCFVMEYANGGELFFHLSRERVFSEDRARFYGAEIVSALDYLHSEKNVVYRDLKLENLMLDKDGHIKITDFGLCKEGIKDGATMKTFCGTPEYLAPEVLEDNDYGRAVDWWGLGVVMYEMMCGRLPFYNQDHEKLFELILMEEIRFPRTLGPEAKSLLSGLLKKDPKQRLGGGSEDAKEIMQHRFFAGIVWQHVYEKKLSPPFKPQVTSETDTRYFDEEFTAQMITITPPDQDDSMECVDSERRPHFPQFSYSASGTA

[8] = target: Protein kinase C alpha type (Homo sapiens, UniProt P17252); assay: Inhibition of PKCalpha
[9] = target: Cyclin-dependent kinase 1 (Homo sapiens, UniProt P06493); assay: Inhibition of CDK1
Chain of Cyclin-dependent kinase 1 (P06493 whole entry): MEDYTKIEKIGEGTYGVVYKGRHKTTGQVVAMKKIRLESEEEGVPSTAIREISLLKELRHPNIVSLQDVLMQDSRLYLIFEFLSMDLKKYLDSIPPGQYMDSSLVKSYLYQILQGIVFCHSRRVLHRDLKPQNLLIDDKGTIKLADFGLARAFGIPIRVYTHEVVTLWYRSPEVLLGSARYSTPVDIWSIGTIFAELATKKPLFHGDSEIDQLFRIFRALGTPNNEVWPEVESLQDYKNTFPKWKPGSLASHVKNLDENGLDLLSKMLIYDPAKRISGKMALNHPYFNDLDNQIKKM

[10] = target: T2, Calcium/calmodulin-dependent protein kinase type IV (Homo sapiens, UniProt Q16566); assay: Inhibition of CamK4
T2 sequence (Q16566 whole entry): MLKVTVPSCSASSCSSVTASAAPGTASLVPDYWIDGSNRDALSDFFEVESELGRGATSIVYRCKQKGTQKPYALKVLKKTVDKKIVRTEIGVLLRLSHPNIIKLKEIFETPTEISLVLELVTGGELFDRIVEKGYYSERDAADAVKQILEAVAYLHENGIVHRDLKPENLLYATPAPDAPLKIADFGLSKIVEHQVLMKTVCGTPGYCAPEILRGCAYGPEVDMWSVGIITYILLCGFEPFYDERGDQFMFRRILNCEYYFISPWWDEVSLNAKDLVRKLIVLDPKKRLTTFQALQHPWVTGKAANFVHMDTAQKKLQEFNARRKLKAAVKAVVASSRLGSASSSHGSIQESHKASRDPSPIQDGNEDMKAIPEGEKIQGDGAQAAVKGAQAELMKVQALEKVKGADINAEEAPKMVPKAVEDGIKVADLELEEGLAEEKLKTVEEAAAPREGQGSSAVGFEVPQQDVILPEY

[11] = target: Mitogen-activated protein kinase 1 (Homo sapiens, UniProt P28482); assay: Inhibition of MAPK1
Chain of Mitogen-activated protein kinase 1 (P28482 whole entry): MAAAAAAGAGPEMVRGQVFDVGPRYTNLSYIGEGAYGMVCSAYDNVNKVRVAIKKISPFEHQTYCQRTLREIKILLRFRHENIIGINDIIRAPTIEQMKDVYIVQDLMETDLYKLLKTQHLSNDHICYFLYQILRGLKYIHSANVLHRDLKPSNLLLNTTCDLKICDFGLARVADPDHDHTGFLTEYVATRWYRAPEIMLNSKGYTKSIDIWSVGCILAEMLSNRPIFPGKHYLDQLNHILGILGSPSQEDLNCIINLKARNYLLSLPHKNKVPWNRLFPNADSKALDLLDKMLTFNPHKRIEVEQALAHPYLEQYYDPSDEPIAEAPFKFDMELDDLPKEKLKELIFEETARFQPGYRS

SMILES | IC50 (Lymphocyte) | other results
CN(C)CCOc1ccc2c(c1)CCn1nc(-c3ccc(NC(=O)Nc4c(Cl)cccc4Cl)cc3)c(C(N)=O)c1N2 | 21 nM | –
NC(=O)c1c(-c2ccc(Oc3ccccc3)cc2)nn2c1Nc1ccc(OCc3ccccn3)cc1CC2 | 8.4 nM | –
CN(C)CCOc1ccc2c(c1)Nc1c(C(N)=O)c(-c3ccc(Oc4ccccc4)cc3)nn1CC2 | 6.4 nM | –
NCCOc1ccc2c(c1)CCn1nc(-c3ccc(Oc4ccccc4)cc3)c(C(N)=O)c1N2 | 1.3 nM | –
CN(C)CCOc1ccc2c(c1)CCn1nc(-c3ccc(Oc4ccccc4)cc3)c(C(N)=O)c1N2 | 0.74 nM | IC50 [1]: 0.72 nM; IC50 [2]: 0.6 nM; IC50 [3]: 1.7 nM; IC50 [4]: > 1000 nM; IC50 [5]: > 10 µM; IC50 [6]: > 10 µM; IC50 [7]: > 10 µM; IC50 [8]: > 10 µM; IC50 [9]: > 10 µM; IC50 [10]: > 10 µM; IC50 [11]: > 10 µM
CN(C)CCCOc1ccc2c(c1)CCn1nc(-c3ccc(Oc4ccccc4)cc3)c(C(N)=O)c1N2 | 0.85 nM | –
NC(=O)COc1ccc2c(c1)Nc1c(C(N)=O)c(-c3ccc(Oc4ccccc4)cc3)nn1CC2 | 16 nM | –
NC(=O)c1c(-c2ccc(Oc3ccccc3)cc2)nn2c1Nc1cc(OCCN3CCOCC3)ccc1CC2 | 15 nM | –
COc1ccc2c(c1)Nc1c(C(N)=O)c(-c3ccc(Oc4ccccc4)cc3)nn1CC2 | 300 nM | –
CN(C)CCCOc1ccc2c(c1)Nc1c(C(N)=O)c(-c3ccc(Oc4ccccc4)cc3)nn1CC2 | 12 nM | –
NC(=O)c1c(-c2ccc(Oc3ccccc3)cc2)nn2c1Nc1cc(OCCO)ccc1CC2 | 58 nM | –
CN1CCN(CCOc2ccc3c(c2)Nc2c(C(N)=O)c(-c4ccc(Oc5ccccc5)cc4)nn2CC3)CC1 | 12 nM | –
CN(C)CCOc1ccc2c(c1)CCn1nc(-c3ccc(NC(=O)Nc4ccccc4)cc3)c(C(N)=O)c1N2 | 50 nM | –
CC(C)CCCOc1ccc2c(c1)Nc1c(C(N)=O)c(-c3ccc(Oc4ccccc4)cc3)nn1CC2 | 620 nM | IC50 [1]: > 100 nM
CC(=O)COc1ccc2c(c1)Nc1c(C(N)=O)c(-c3ccc(Oc4ccccc4)cc3)nn1CC2 | 61 nM | –
CN(C)CCOc1ccc2c(c1)CCn1nc(-c3ccc(O)cc3)c(C(N)=O)c1N2 | 38 nM | –
CN(C)CCOc1ccc2c(c1)CCn1nc(-c3ccc(NCc4c(Cl)cccc4Cl)cc3)c(C(N)=O)c1N2 | 1.3 nM | –
CN(C)CCOc1ccc2c(c1)CCn1nc(-c3ccc(Nc4ccccc4)cc3)c(C(N)=O)c1N2 | 8.2 nM | –
CN(C)CCOc1ccc2c(c1)CCn1nc(-c3ccc(NC(=O)OCc4ccccc4)cc3)c(C(N)=O)c1N2 | 23 nM | –
NC(=O)c1c(-c2ccc(Oc3ccccc3)cc2)nn2c1Nc1ccc(OCc3ccncc3)cc1CC2 | 4.4 nM | –
NC(=O)c1c(-c2ccc(Oc3ccccc3)cc2)nn2c1Nc1ccc(OCCN3CCOCC3)cc1CC2 | 1.1 nM | –
NC(=O)c1c(-c2ccc(Oc3ccccc3)cc2)nn2c1Nc1ccc(OCc3cccnc3)cc1CC2 | 1.5 nM | –
NC(=O)c1c(-c2ccc(Oc3ccccc3)cc2)nn2c1Nc1ccc(OCCO)cc1CC2 | 1.2 nM | –
NC(=O)COc1ccc2c(c1)CCn1nc(-c3ccc(Oc4ccccc4)cc3)c(C(N)=O)c1N2 | 88 nM | –
CN1CCN(CCOc2ccc3c(c2)CCn2nc(-c4ccc(Oc5ccccc5)cc4)c(C(N)=O)c2N3)CC1 | 6.7 nM | –
CN(C)CCOc1ccc2c(c1)CCn1nc(-c3ccc(N)cc3)c(C(N)=O)c1N2 | 180 nM | –
NC(=O)c1c(-c2ccc(Oc3ccccc3)cc2)nn2c1Nc1cc(OCC(=O)O)ccc1CC2 | > 1000 nM | –
NC(=O)c1c(-c2ccc(Oc3ccccc3)cc2)nn2c1Nc1cc(OCc3cccnc3)ccc1CC2 | 52 nM | –
NCCOc1ccc2c(c1)Nc1c(C(N)=O)c(-c3ccc(Oc4ccccc4)cc3)nn1CC2 | 25 nM | –
